Test results from patent publication US10500170B2, “Composition and method for treating neurological disease” (Osmotica Kereskedelmi és Szolgáltató Korlátolt Felelõsségû …, priority 2018, dated 2019).

How the values were obtained:
[1] = Solubility of amantadine HCl in water; type: physicochemical; details: 160 mg, 240 mg and 320 mg of amantadine HCl
[2] = cited from earlier work
[3] = tested on: plasma proteins; details: concentration range of 0.1 to 2.0 μg/mL; cited from earlier work
[4] = cited from earlier work; remark: listed apart in the source

For `NC12CC3CC(CC(C3)C1)C2` [Amantadine, amantadine], the Solubility in water [1] is listed as “soluble in 250 mL water”, the “elimination half-life change in renal insufficiency” value ([2]; creatinine clearance less than 40 mL/min/1.73 m^2) is listed as “increases two to three fold or greater” and the elimination half-life ([2]; patients on chronic maintenance hemodialysis) is listed as “averages eight days”. The “bound to plasma proteins” value [3] was 67%, the volume of distribution ([4]; after intravenous administration) was 3 to 8 L/kg and the “reduction of renal clearance of amantadine” value ([4]; coadministration of quinine or quinidine) was “about 30%”. For the same compound, the “administered dose excreted unchanged in urine” value ([4]; in vivo) was “approximately 85%” and the “metabolism as share of the total clearance” value ([4]; in vivo) was 5-15%.
